Where “and” joins values, the source holds several entries; their conditions need not be identical. Equal values may be shown once. Square brackets hold non-standard residues; d marks the D form. Peptide text beside a SMILES is read from it. Arg(Me) = CNC(=N)NCCC[C@H](N)C(=O)O; d4Pal = N[C@H](Cc1ccncc1)C(=O)O; azaGly = NNC(=O)O
Key:
Type in all cases: functional, Homo sapiens
Set-up in all cases: dose or concentration left out as unconfirmed
Colon cancer organoid [1] = assay: (§1) Image-based profiling of donated chemical probes and chemogenomic kinase set in O09 CRC organoid. Image analysis is performed on the sum area metric, and the data were normalized to the DMSO control. After imaging the organoid viability is measured using the OneGloEX Luciferase Assay System. The normalized viability data and sum area are reported.
Colon cancer organoid [2] = assay: as §1, with “O21” for “O09”
Colon cancer organoid [3] = assay: as §1, with “O06” for “O09”

Compound	Cell Viability (Colon cancer organoid [1]; Replication number 1)	Cell Viability (Colon cancer organoid [1]; Replication number 2)	Cell Viability (Colon cancer organoid [2]; Replication number 1)	Cell Viability (Colon cancer organoid [2]; Replication number 2)	Cell Viability (Colon cancer organoid [3]; Replication number 1)	Cell Viability (Colon cancer organoid [3]; Replication number 2)
CCOc1cc2ncc(C#N)c(Nc3ccc(OCc4cccc(F)c4)c(Cl)c3)c2cc1NC(=O)/C=C/CN(C)C [HKI-357]	14.2588% and 15.3343%	12.8508% and 14.4694%	27.4097% and 41.0314%	48.8208% and 68.5139%	2.387% and 8.346%	3.908% and 9.337%
CC(C)(O)c1cncc(-c2nc3ccc(F)cc3n2C2CC2)c1 [MSD-CYP11B2]	85.3446% and 107.103%	121.971% and 103.489%	108.022% and 122.772%	100.134% and 120.326%	79.0545% and 113.441%	106.294% and 130.706%
CC1=C(C(=O)Nc2cc3cn[nH]c3cc2F)C(c2ccc(C(F)(F)F)cc2)CC(=O)N1 (stereo not given)	137.27% and 97.7404%	200.569% and 118.509%	120.369% and 99.2335%	116.368% and 107.089%	108.292% and 112.394%	105.064% and 92.1337%
CNC(=O)Nc1ccc(-c2nc(N3CC4CCC(C3)O4)c3cnn(C4CCC5(CC4)OCCO5)c3n2)cc1	16.963% and 8.004%	13.8845% and 13.3086%	32.2778% and 51.8467%	33.537% and 47.4991%	5.405% and 12.6193%	4.979% and 10.7558%
CCCCN(CCCC)C(=O)CN1C[C@@H](c2cc(OC)c3c(c2)OCO3)[C@H](C(=O)O)[C@H]1CC(C)(C)CCC [A-545]	137.08% and 104.407%	151.031% and 114.494%	100.23% and 87.9043%	101.691% and 84.1837%	97.8309% and 86.6511%	75.1695% and 72.7273%
Nc1nc(NCc2ccccc2)nc(-c2ccccc2CO)n1 [Ogerin]	84.1314% and 95.0982%	82.0321% and 100.912%	116.019% and 92.2153%	95.1453% and 93.8137%	105.073% and 119.514%	91.1794% and 124.7%
CCOCCn1cc(C(=O)Nc2ccc(-n3nc(-c4cccnc4)cc3C(F)(F)F)cn2)ccc1=O [BI 1935]	99.959% and 99.8673%	61.8115% and 83.5341%	115.071% and 97.8008%	110.735% and 98.9796%	106.067% and 119.906%	111.838% and 96.8907%
CNC(=N)NCCC[C@H](NC(=O)[C@H](CC(C)C)NC(=O)NNC(=O)[C@H](Cc1ccccc1)NC(=O)[C@H](CO)NC(=O)[C@H](CC(N)=O)NC(=O)[C@@H](Cc1ccncc1)NC(=O)[C@H](N)Cc1ccc(O)cc1)C(=O)N[C@@H](Cc1ccccc1)C(N)=O [KISS1-305] (H-[dY][d4Pal]NSF[azaGly]L[Arg(Me)]F-NH2)	111.929% and 98.6727%	102.809% and 106.608%	121.353% and 98.3829%	105.015% and 111.735%	103.915% and 128.337%	108.799% and 104.471%
CCNC(=O)c1cc2c(-c3cc(C(C)(C)O)ccc3Oc3c(C)cc(F)cc3C)cn(C)c(=O)c2[nH]1 [ABBV-744]	57.6147% and 40.8037%	73.5027% and 48.4637%	105.916% and 106.401%	102.084% and 111.158%	111.05% and 99.302%	81.1787% and 70.2602%
CN(C(=O)c1ccccc1)c1cc(N(C)c2ccc3c(c2)CCc2ccc(C(=O)NCCN4CCOCC4)cc2C3=O)ccc1F [FM-743]	89.1217% and 99.5999%	73.0037% and 91.594%	111.27% and 106.402%	83.0534% and 97.3827%	90.1876% and 101.781%	105.862% and 118.933%
COc1cc(N2CCC(O)CC2)ccc1Nc1cc(Nc2ccccc2S(=O)(=O)C(C)C)c2cc[nH]c2n1	95.9238% and 77.0453%	69.9407% and 56.4198%	85.5887% and 104.808%	115.828% and 93.8467%	110.737% and 120.851%	95.8479% and 104.062%
CC(C)Oc1ccc(-c2c[nH]cc2CN(C)CCN)cc1	64.4727% and 62.1329%	85.7978% and 86.9496%	91.7863% and 65.8393%	93.2232% and 70.8831%	21.9267% and 37.2081%	18.5621% and 35.8471%
O=C(NNS(=O)(=O)c1ccccc1F)c1cc(F)cc(-c2ccccn2)c1 [WM-1119]	133.421% and 96.9739%	39.4001% and 91.3957%	82.8466% and 99.3088%	81.4128% and 90.2447%	59.5797% and 94.7368%	61.7919% and 84.5747%
CC1=CC(C)=[N+]2C1=C(CCCCc1cn(CC(=O)N3CCc4nc(NC(=O)[C@H]5CCN(C#N)C5)sc4C3)nn1)c1c(C)cc(C)n1[B-]2(F)F	63.7608% and 86.8451%	67.8399% and 91.9905%	110.953% and 108.585%	96.9264% and 89.225%	105.892% and 120.972%	115.912% and 117.492%
c1ccc(C2CCN(c3cnc4c(N5CCOCC5)nccn34)CC2)cc1	180.042% and 107.897%	162.986% and 102.452%	115.301% and 98.0422%	102.772% and 73.1066%	145.966% and 120.992%	117.4% and 104.103%
Cc1c(N2CCNCC2)nc2ccc(Br)cc2c1C(=O)NC[C@H](CCC(=O)O)c1ccccc1Cl [BAY-403]	84.5203% and 109.166%	120.857% and 102.102%	86.0908% and 103.128%	96.6508% and 95.8532%	84.3877% and 124.372%	102.985% and 123.739%
CCOc1cn(-c2ccc(F)cc2C)nc1C(=O)Nc1ccc(Oc2ccnc3cc(OC)c(OC)cc23)c(F)c1	106.171% and 88.0162% and 65.7353% and 75.3%	96.6425% [middle of 4 runs]	103.157% and 102.021% and 78.4654% and 79.1638%	106.966% and 96.7254% and 100.887% and 106.513%	102.988% and 123.299% and 120.024% and 109.723%	127.856% and 122.776% and 99.2168% and 90.0771%
CO[C@H]1CNC[C@@H](OCC2CCC(F)(F)CC2)[C@@H]1Nc1ncc(-c2cncc(C)c2)c2cc(C)c(=O)[nH]c12	183.516% and 118.934%	127.49% and 119.734%	117.954% and 107.577%	97.9494% and 89.6778%	159.604% and 115.973%	145.077% and 98.9379%
O=C(NCc1ccccc1)c1ccc(S(=O)(=O)NCc2ccccc2)cc1	92.4038% and 93.7908%	103.22% and 86.1192%	112.801% and 110.51%	91.6281% and 94.6419%	187.548% and 135.666%	115.38% and 119.884%
CN(C)C/C=C/C(=O)Nc1cc2c(Nc3ccc(F)c(Cl)c3)ncnc2cc1O[C@H]1CCOC1.O=C(O)/C=C\C(=O)O.O=C(O)/C=C\C(=O)O [AFATINIB DIMALEATE]	8.847% and 13.6138%	6.151% and 10.3121%	61.0357% and 82.5087%	65.3803% and 88.665%	4.81% and 9.6592%	4.363% and 10.2005%
O=C(/C=C/N1C[C@H]2C[C@@H]1CN2c1ccccn1)c1ccccc1O	108.639% and 102.241%	93.5613% and 97.7827%	136.807% and 131.679%	93.5448% and 99.3437%	142.277% and 136.268%	180.564% and 107.78%
CN([C@@H]1CCc2c(CC(=O)O)c3ccccc3n2C1)S(=O)(=O)c1ccc(F)cc1 [MK-7246]	131.189% and 119.936%	71.8556% and 75.9401%	86.5772% and 112.354%	98.7828% and 96.4286%	103.187% and 97.4239%	129.375% and 117.264%
CCCc1cc(C)[nH]c(=O)c1CNC(=O)c1cc(-c2ccc(N3CCN(C(C)C)CC3)nc2)cc2c1cnn2C(C)C	144.261% and 110.819%	125.635% and 91.796%	90.7936% and 81.7113%	90.0059% and 120.286%	117.017% and 105.342%	150.35% and 108.975%
CCN(CC)S(=O)(=O)Nc1cccc(-c2ccc3c(NC(=O)C4CC4)n[nH]c3c2)c1	118.731% and 102.205%	162.059% and 116.31%	106.348% and 90.1082%	91.5896% and 92.3751%	115.301% and 130.405%	90.7141% and 75.8621%
O=C(O)[C@@H]1[C@@H](Cn2nnc3ccccc3c2=O)CC[C@H]1C(=O)c1ccc(OCCC2CCOCC2)cc1 [BAY-694]	120.527% and 70.2416%	178.043% and 104.564%	110.342% and 94.3079%	96.7199% and 85.7143%	110.156% and 94.3794%	134.213% and 84.5721%

From ChEMBL document CHEMBL5724558, “Image-based profiling of drug vulnerabilities in CRC organoids” (2024)
